Laboratory results from article PMC7589200, “Identification of Putative Non-Substrate-Based XT-I Inhibitors by Natural Product Library Screening” (Biomolecules, 2020).

Experiments:
recombinant human XT-I = biological target: T1, recombinant human XT-I (Homo sapiens, UniProt Q86Y38); experiment: NP library inhibitor screening, UPLC/ESI-MS/MS XT-I assay; format: biochemical; conditions: 50 μM inhibitor, technical duplicates; for XT-I Activity [%]: Table 2, relative to control (DMSO = 100%); for remaining activity at 50 µM: Table S1, relative to negative control containing DMSO
T1 sequence (Q86Y38 252-959 limits assumed): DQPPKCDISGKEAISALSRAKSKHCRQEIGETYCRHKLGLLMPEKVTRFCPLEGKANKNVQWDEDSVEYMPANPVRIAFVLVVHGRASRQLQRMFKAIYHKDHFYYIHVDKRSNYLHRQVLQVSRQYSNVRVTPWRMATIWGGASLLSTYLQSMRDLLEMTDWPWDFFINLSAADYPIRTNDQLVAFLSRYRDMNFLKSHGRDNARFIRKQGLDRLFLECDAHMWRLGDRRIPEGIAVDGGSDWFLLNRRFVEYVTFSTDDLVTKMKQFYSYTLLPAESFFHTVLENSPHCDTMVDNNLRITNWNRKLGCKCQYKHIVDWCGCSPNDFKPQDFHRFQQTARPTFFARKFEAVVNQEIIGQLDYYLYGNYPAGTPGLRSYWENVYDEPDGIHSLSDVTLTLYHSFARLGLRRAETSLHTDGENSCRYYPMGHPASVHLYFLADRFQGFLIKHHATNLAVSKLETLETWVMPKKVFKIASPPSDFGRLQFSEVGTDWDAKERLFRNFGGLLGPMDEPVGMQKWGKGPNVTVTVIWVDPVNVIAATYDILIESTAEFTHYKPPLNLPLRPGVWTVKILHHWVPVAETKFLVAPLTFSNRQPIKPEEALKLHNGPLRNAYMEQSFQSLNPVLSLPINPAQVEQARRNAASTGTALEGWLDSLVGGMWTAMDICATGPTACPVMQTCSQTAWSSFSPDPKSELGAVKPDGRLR

XYLT2 mRNA expression = XYLT2 mRNA expression in NHDFs by qRT-PCR; format: cell-based, human; conditions: 48 h
Experimental: A former established cell culture model was utilized to investigate the effect of putative XT-I inhibitors on NHDFs. The inhibition studies were carried out with final inhibitor concentrations of 0.5, 1.0, 2.0 or 4.0 μM diluted in fully supplemented DMEM. In brief, unless otherwise stated, NHDFs were cultivated with a low density of 50 cells per mm^2 on a hard tissue culture substrate (100 × 20 mm dish) in fully supplemented DMEM with or without additional TGF-β1 (5 μg/L) for 24 h, promoting their transdifferentiation into proto-myofibroblasts. Thereafter, cells were treated with celastrol or amphotericin B in the presence or absence of TGF-β1 (5 μg/L) for an additional 48 h. Negative controls treated with solvent only were included for every sampling time. The final DMSO content of 0.04% (v/v) was kept constant in all inhibition experiments.
The RNA extraction from cell lysates and cDNA synthesis for mRNA and miRNA expression analysis were performed as described previously.
Quantitative real-time polymerase chain reaction (qRT-PCR) analysis using a LightCycler 480 Instrument II system (Roche, Basel, Swiss) was performed as previously described. The qRT-PCR experiments were conducted with three biological and three technical replicates per donor-derived primary cell culture, unless otherwise stated. The intron-spanning primer sequences used are listed in [7] and Table 1. The geometric mean of the expression levels of the housekeeping genes SDHA, RPL13A and B2M were calculated for expression normalization. The relative target gene mRNA expressions were determined by the ΔΔCT method considering the PCR efficiency. All normalized gene expression levels shown were referred to the respective target gene expression of one primary cell culture sample for the relative comparison of multiple biological samples per experiment and figures.

SMILES	XT-I Activity [%] (recombinant human XT-I)	remaining activity at 50 µM (recombinant human XT-I)	XYLT2 mRNA expression level (XYLT2 mRNA expression; 2.0 μM with TGF-β1 (5 μg/L), versus TGF-β1 only)	XYLT2 mRNA expression level (XYLT2 mRNA expression; 1.0 μM in the presence of TGF-β1 (5 μg/L))
C[C@@H]1[C@H](O)[C@@H](C)/C=C/C=C/C=C/C=C/C=C/C=C/C=C/[C@H](O[C@@H]2O[C@H](C)[C@@H](O)[C@H](N)[C@@H]2O)C[C@@H]2O[C@](O)(C[C@@H](O)C[C@@H](O)[C@H](O)CC[C@@H](O)C[C@@H](O)CC(=O)O[C@H]1C)C[C@H](O)[C@H]2C(=O)O [Compound 17, Amphotericin B]	25%	25%	did not differ	
CC1=C(O)C(=O)C=C2C1=CC=C1[C@@]2(C)CC[C@@]2(C)[C@@H]3C[C@](C)(C(=O)O)CC[C@]3(C)CC[C@]12C [Compound 68, Celastrol]	38%	38%		did not alter
